Experimental findings from ChEMBL document CHEMBL2424588, “Four-membered heterocycles-containing 4-anilino-quinazoline derivatives as epidermal growth factor receptor (EGFR) kinase inhibitors” (Bioorg Med Chem Lett, 2013) are described below.

SMILES strings stand for the structures. Converted amounts (≈) assume the structure as drawn.

Broadly, the IC50 is the midpoint of a concentration-inhibition curve. Lower therefore signals greater potency. As a reminder, the solubility is the concentration that dissolves in the medium under given conditions. A low value points to a poorly soluble substance.

A short description of series [1]: Cytotoxicity against human HCC827 cells after 72 hrs by CCK-8 assay. It counts as functional, cell-based. To be noted: HCC827, 72 h. (Tetrazolium assays rely on reduction of a dye to a coloured formazan, in cell work by metabolically active cells.)
The subject of the next series is A549. In words: Cytotoxicity against human A549 cells after 72 hrs by CCK-8 assay. In kind it is functional, cell-based. To be noted: A549, 72 h.
Series [2] addresses Epidermal growth factor receptor (Homo sapiens, UniProt P00533). Nature of the series: Inhibition of wild type EGFR (unknown origin) after 24 hrs by fluorescence assay.
The nature of series [3]: Aqueous solubility of the compound at 20 degC. The settings on record: water. In kind it is physicochemical.

Chain of Epidermal growth factor receptor (P00533 whole entry): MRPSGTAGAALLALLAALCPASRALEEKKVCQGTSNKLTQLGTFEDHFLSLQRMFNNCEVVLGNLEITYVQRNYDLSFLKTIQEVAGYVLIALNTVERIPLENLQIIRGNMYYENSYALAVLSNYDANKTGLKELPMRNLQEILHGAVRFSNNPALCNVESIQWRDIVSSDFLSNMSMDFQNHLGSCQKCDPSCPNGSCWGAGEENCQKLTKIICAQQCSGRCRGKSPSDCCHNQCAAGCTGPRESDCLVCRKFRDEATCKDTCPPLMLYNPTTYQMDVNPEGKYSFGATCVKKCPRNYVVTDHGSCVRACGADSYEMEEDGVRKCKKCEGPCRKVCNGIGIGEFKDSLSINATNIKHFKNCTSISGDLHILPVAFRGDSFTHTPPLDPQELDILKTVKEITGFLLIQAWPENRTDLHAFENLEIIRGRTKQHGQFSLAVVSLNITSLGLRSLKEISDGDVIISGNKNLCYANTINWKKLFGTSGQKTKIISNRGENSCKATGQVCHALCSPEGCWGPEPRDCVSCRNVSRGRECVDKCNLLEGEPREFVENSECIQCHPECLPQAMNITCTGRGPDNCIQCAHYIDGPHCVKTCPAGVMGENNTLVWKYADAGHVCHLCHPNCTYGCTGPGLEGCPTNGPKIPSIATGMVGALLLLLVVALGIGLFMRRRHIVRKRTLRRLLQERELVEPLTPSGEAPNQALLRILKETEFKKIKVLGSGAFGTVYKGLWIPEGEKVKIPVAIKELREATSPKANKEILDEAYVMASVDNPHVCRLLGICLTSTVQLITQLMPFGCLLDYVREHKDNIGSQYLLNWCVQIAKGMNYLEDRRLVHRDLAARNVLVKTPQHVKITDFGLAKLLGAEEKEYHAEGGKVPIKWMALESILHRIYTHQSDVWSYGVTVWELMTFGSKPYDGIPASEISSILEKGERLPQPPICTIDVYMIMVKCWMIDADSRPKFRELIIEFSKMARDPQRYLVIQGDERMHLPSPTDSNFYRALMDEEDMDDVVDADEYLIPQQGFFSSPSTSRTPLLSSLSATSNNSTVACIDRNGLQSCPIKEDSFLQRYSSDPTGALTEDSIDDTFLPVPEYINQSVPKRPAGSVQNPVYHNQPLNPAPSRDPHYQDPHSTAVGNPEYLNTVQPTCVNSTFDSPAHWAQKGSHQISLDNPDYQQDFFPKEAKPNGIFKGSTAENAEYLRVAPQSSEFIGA

For `COc1cc2ncnc(Nc3ccc(F)c(Cl)c3)c2cc1OCCN1CC2(C1)CS(=O)(=O)C2`, the IC50 in series [1] was 154 nM; in the series with A549, more than 50 µM; in series [2], 158 nM. In series [3], the solubility is less than 1 µg/mL.
In the same order, the values of `COc1cc2ncnc(Nc3ccc(F)c(Cl)c3)c2cc1OCCCN1CC2(C1)CS(=O)(=O)C2` are 389 nM, 25.2 µM, 24 nM and 72.3 µg/mL (≈ 143 µM).
Regarding `COc1cc2ncnc(Nc3ccc(F)c(Cl)c3)c2cc1OCCCN1CC(O)C1`, the IC50 in series [1] is 352 nM; with A549 it was more than 50 µM; in series [2], 25 nM.
As to `COc1cc2ncnc(Nc3ccc(F)c(Cl)c3)c2cc1OCCCN1CC(OC)C1`, the IC50 amounted to 42 nM in series [1], 25.1 µM in the series with A549 and 34 nM in series [2].
`COc1cc2ncnc(Nc3ccc(F)c(Cl)c3)c2cc1OCCCN1CCC2(COC2)C1`: the concentration for half-maximal inhibition (IC50) in series [1] was 28 nM; in the series with A549 it was more than 50 µM. This compound also showed a solubility in series [3] of 33.8 µg/mL (≈ 71.5 µM).
For the compound `COc1cc2ncnc(Nc3ccc(F)c(Cl)c3)c2cc1OCCN1CC2(COC2)C1`, the half-maximal inhibitory concentration (IC50) was 16 nM in series [1], more than 50 µM with A549 and 16 nM in series [2]. The compound further showed a solubility in series [3] of 1.4 µg/mL (≈ 3.15 µM).
Regarding `COc1cc2ncnc(Nc3ccc(F)c(Cl)c3)c2cc1OCCN1CC2(CCO2)C1`, the IC50 in series [1] was 23 nM; in the series on A549, more than 50 µM; in series [2] it was 190 nM. For the same compound, the solubility in series [3] is less than 1 µg/mL.
In the same order, the values of `COc1cc2ncnc(Nc3ccc(F)c(Cl)c3)c2cc1OCCN1CC2(CSC2)C1` are 51 nM, 4.8 µM, 52 nM and less than 1 µg/mL.
For the compound `COc1cc2ncnc(Nc3ccc(F)c(Cl)c3)c2cc1OCCN1CC(O)C1`, the values for the IC50 (in series [1]; in the series on A549; in series [2]) were 116 nM, more than 50 µM and 26 nM, respectively.
As to `COc1cc2ncnc(Nc3ccc(F)c(Cl)c3)c2cc1OCCN1CC(OC)C1`, the IC50 was 64 nM in series [1], more than 50 µM with A549 and 94 nM in series [2].
Regarding `COc1cc2ncnc(Nc3ccc(F)c(Cl)c3)c2cc1OCCCN1CC2(COC2)C1`, the IC50 in series [1] turned out to be 69 nM; in the series with A549, 31.8 µM; in series [2] it was 56 nM. Besides, the solubility in series [3] turned out to be 28.3 µg/mL (≈ 61.7 µM).
In the same order, the values of `COc1cc2ncnc(Nc3ccc(F)c(Cl)c3)c2cc1OCCCN1CC2(CCO2)C1` are 39 nM, 25.7 µM, 36 nM and 1.2 µg/mL (≈ 2.61 µM).
In the same order, the values of `COc1cc2ncnc(Nc3ccc(F)c(Cl)c3)c2cc1OCCCN1CC2(CSC2)C1` are 50 nM, 9.5 µM, 48 nM and 25.6 µg/mL (≈ 53.9 µM).
The compound `COc1cc2ncnc(Nc3ccc(F)c(Cl)c3)c2cc1OCCCN1CCOCC1` [GEFITINIB] returned a solubility in series [3] of 2.1 µg/mL (≈ 4.7 µM).
